Entries after “also recorded” stand apart in the source; their conditions may differ.
Legend:
[1] = system: RPL (recurrent pregnancy loss) patient; details: cited from earlier work; for Outcome of earlier treatment: low-dose aspirin, heparin, prednisolone 5 mg/day, large-quantity γ-globulin 1 g/kg for 3 days, given in this order
[2] = system: patient suffering from a blood type incompatible pregnancy with negative maternal Rho (D) and positive fetal Rho (D); assay: Pregnancy course and fetal/neonatal outcome in blood type incompatible pregnancy treated with tacrolimus (Example 1); assay type: in vivo, human
Description: (§1) The patient is a person having blood type A. The patient suffering from a blood type incompatible pregnancy with negative maternal Rho (D) and positive fetal Rho (D) was subjected to the following treatments. That is, at the time of the first pregnancy, anti-D immunoglobulin was not administered during pregnancy, sensitization was effected before delivery, and the anti-D antibody titer at the time of delivery was 8-fold. In week 39, they gave birth by emergency cesarean section due to placental abruption of the upper placenta.
Two years later, […] hoped to have a second child but suffered from infecundity and was treated for sterility by in vitro fertilization; however, since the treatment was unsuccessful after five embryo transplantations, a close examination of the immune system was conducted. At that time, a marked increase (24.9) in the Th1/Th2 (Th1 32.4, Th2 1.3) ratio was recognized, the illness was judged as infecundity considered to be caused by an abnormality in the immune system, and a tacrolimus treatment was selected.
(§2) The anti-D antibody titer obtained immediately after the establishment of pregnancy was 4-fold; however, the titer reached 16-fold in week 24 and reached 32-fold in week 26 (FIG. 6, upper part). After that, migration of fetal antigens to the mother's body via the placenta was assumed to further increase, and preparation of plasmapheresis and fetal blood transfusion was initiated in preparation for a rapid increase in the antibody titer.
(§3) Furthermore, the blood flow velocity in the middle cerebral artery and the estimated body weight of the fetus were measured by fetal ultrasonography.

[3] = Concentration of tacrolimus in the cord blood by chemiluminescence immunoassay (ECLIA); assay type: in vivo, human; details: at delivery, mother on 5 mg/day oral
[4] = system: patient having a medical history of pregnancy-induced hypertensive nephropathy and HELLP syndrome; assay: Prevention or delay of onset of pregnancy-induced hypertension syndrome, HELLP syndrome and eclampsia (Example 4, Table 1); assay type: in vivo, human
Description: A patient is a person having a medical history of pregnancy-induced hypertensive nephropathy and HELLP syndrome. […] After the delivery, pulmonary edema, disseminated intravascular coagulation (DIC), and intraperitoneal bleeding, all of which are severe complications, were recognized, and the patient received treatments such as management using an artificial respirator, supplement of albumin, and blood component transfusion.
This time, in the hematologic examination findings before pregnancy, there were no abnormalities in all of the liver function, kidney function, and coagulation function, and abnormal findings were not observed in the examination items involved in infertility such as antiphospholipid antibody syndrome (anti-CL-IgG antibody, anti-CL-IgM antibody, anti-PS/PT antibody, anti-CL-β2GP1 antibody, LAC, anti-PE-IgG antibody, and anti-PE-IgM antibody), autoimmune diseases (anti-DNA antibody and antinuclear antibody), and coagulation dysfunction.
The circumstances of the first pregnancy and the pregnancy of this time are described in Table 1.
The ratio of Th1 (CD4g^+IFN-g^+)/Th2(CD4^+IL-4^+) in CD4-positive cells is 15.2/2.1 (normal value: less than 10.3), and clear immunological abnormalities were also not observed before pregnancy [Reference Literature 12b]; however, it was assumed that after implantation of a fertilized ovum, immunity of the mother's body would be activated, and immune abnormality between the mother's body and the fetus would suppress placental construction and functions thereof, causing fetal growth restriction and hypertension during pregnancy. Considering this, the patient was treated with 1 mg/day of tacrolimus from week 4 of pregnancy, for the purpose of controlling the immunity between the mother's body and the fetus after confirmation of pregnancy.
In this case, monotherapy was carried out with 1 mg/day of tacrolimus from the early stage of pregnancy, and combined treatment of low dose aspirin (LDA) intended for HDP prevention by bloodstream improvement was not carried out [Reference Literature 13b]. Regarding the pregnancy progress, there was no problem in the second trimester of pregnancy, where the patient developed HELLP syndrome in the previous pregnancy, and pregnancy progressed smoothly to the third trimester of pregnancy; however, the patient rapidly acquired HELLP syndrome similarly to the previous pregnancy, after week 33 of pregnancy.

[5] = system: patient suffering from a blood type incompatible pregnancy with negative maternal Rho (D) and positive fetal Rho (D); assay: Anti-D antibody titer by indirect Coombs test, Example 1 patient; assay type: in vivo, human; details: for Anti-D antibody titer: maternal blood, tacrolimus 4 mg/day oral
Description: Measurement of Anti-D Antibody Titer
The measurement is carried out by the indirect Coombs test. The indirect Coombs test is a test in which an anti-immunoglobulin antibody is added to a mixture of the blood serum of a patient and the blood of a healthy person to examine whether a hemagglutination reaction occurs (any irregular antibody present in the blood serum is detected) (for the Coombs test, see Nissan Women's Journal Vol. 59, No. 10, N-617-N-623).
as §1, §2, §3

[6] = system: NK cells; assay: NK cell activity during pregnancy (Example 4); assay type: in vivo, human; details: Example 4 patient during pregnancy, tacrolimus 1 mg/day; normal value 18% to 40%; FIG. 8
[7] = system: Th1 and Th2 cells among CD4-positive cells; assay: Analysis of Th1 cells and Th2 cells in patient blood by flow cytometry; assay type: in vivo, human
Description: Analysis of Th1 Cells and Th2 Cells
For the purpose of evaluating the baseline value of the Th1/Th2 cell ratio, a total of 10 ml of venous blood was collected. Th1 cells and Th2 cells were determined by detecting the production of intracellular interferon (IFN)-γ and IL-4.
Specific staining of lymphocytes was performed by incubating whole blood together with anti-CD4-PC5 or anti-CD8-PC5-conjugated monoclonal antibody (mAbs) (Beckman Coulter, Inc., Fullerton, Calif., USA). Red blood cells (RBCs) were removed by hemolysis (using FACS Lysing solution; Becton, Dickinson and Company, BD 134 Biosciences, Franklin Lake, N.J., USA), and lymphocytes were analyzed using flow cytometry (FACSCalibur; Becton, Dickinson and Company). Activated whole blood samples were surface-stained using anti-CD4-PC5-conjugate mAbs, and then RBC hemolysis and specific intracellular staining using Fast Immune (trademark) IFN-γ-FITC/IL-4-PE (Becton, Dickinson and Company) were carried out in sequence according to the manufacturer's instructions for use. Th1 cells were defined as CD4^+ lymphocytes accompanied by intracellular IFN-γ but not by intracellular IL-4. Th2 cells were detected as CD4^+ lymphocytes accompanied by intracellular IL-4 but not by intracellular IFN-γ. The ratio of intracellular IFN-γ-positive Th cells with respect to intracellular IL-4-positive Th cells was expressed as the Th1/Th2 cell ratio.

[8] = system: patients with five consecutive incidences of RIF (repeated implantation failure); details: treated from two days before embryo transplantation to day of pregnancy test; daily dose by Th1/Th2 cell ratio; 16/25 versus 0% (0/17) untreated; cited from earlier work
[9] = pregnancy of this time, tacrolimus 1 mg/day, after parturition
[10] = pregnancy of this time, tacrolimus 1 mg/day, before parturition
[11] = tacrolimus 1 mg/day, after parturition
[12] = tacrolimus 1 mg/day, before parturition

## CC(=O)Oc1ccccc1C(=O)O [aspirin]
[1]
  Outcome of earlier treatment: not successful

## C[C@]12C=CC(=O)C=C1CC[C@@H]1[C@@H]2[C@@H](O)C[C@@]2(C)[C@H]1CC[C@]2(O)C(=O)CO [prednisolone]
[1]
  Outcome of earlier treatment: not successful

## C=CCC1/C=C(\C)CC(C)CC(OC)C2OC(O)(C(=O)C(=O)N3CCCCC3C(=O)OC(/C(C)=C/C3CCC(O)C(OC)C3)C(C)C(O)CC1=O)C(C)CC2OC (stereo not drawn) [tacrolimus, 17-Allyl-1,14-dihydroxy-12-[2-(4-hydroxy-3-methoxycyclohexyl)-1-methylvinyl]-23,25-dimethoxy-13,19,21,27-tetramethyl-11,28-dioxa-4-azatricyclo[22.3.1.04,9]octacos-18-ene-2,3,10,16-tetraone]
[2]; Example 1, tacrolimus 4 then 5 mg/day
  Body weight of child at birth: 2834 g
[2]; FIG. 7, estimated by fetal ultrasonography
  Body weight of the fetus in the weeks of pregnancy: smoothly increased
[2]; child exposed in utero to tacrolimus 4 to 5 mg/day
  Malformations of the child: no external malformations or visceral malformations
[2]; fetal ultrasonography during pregnancy, tacrolimus 4 then 5 mg/day
  Fetal anemia (blood flow velocity in the middle cerebral artery): corresponded to the number of weeks; also recorded: without observing any fetal anemia; also recorded: fetal anemia was not developed during the entire course of pregnancy
[2]; person, infecundity after five unsuccessful embryo transplantations, Th1/Th2 24.9, tacrolimus 4 mg/day oral
  Establishment of pregnancy by embryo transplantation: Pregnancy was established by a single embryo transplantation
[2]; without using plasma exchange, data not shown
  Pregnancy progress in RhD incompatible pregnancy: satisfactory pregnancy progress was obtained
[3]
  Concentration of tacrolimus in the cord blood: lower than or equal to the detection limit value
[4]; pregnancy of this time, tacrolimus 1 mg/day from week 4
  Information on fetus: Fetal growth: −1.9 SD
[4]; pregnancy of this time, tacrolimus 1 mg/day from week 4, at birth
  Information on fetus: Body weight: 1490 g
[4]; [9]
  Complications after parturition: None
  Symptoms: Edema: Negligible
  Symptoms: Hypertension: Temporary
[4]; [10]
  Proteinuria initiated (weeks of pregnancy): 33 weeks of pregnancy
  Symptoms: Edema: Negligible
[4]; single administration of tacrolimus 1 mg/day, previous pregnancy untreated
  Delay of onset of HELLP syndrome compared to the previous pregnancy: about 13 weeks
[4]; tacrolimus 1 mg/day monotherapy from week 4 of pregnancy
  Proteinuria, edema, and hypertension during pregnancy progress: not observed until week 32 of pregnancy
[4]; [11]
  Blood examination: ALT: 833 U/L
  Blood examination: AST: 898 U/L
  Blood examination: Cr: 0.59 mg/dL
  Blood examination: Hb: 10.5 g/dL
  Blood examination: LDH: 1995 U/L
  Blood examination: Plt: 2.2 10^4/µL
  Blood examination: WBC: 8220 µL⁻¹
[4]; [12]
  Blood examination: ALT: 71 U/L
  Blood examination: AST: 65 U/L
  Blood examination: Cr: 1 mg/dL
  Blood examination: Hb: 11 g/dL
  Blood examination: LDH: 316 U/L
  Blood examination: Plt: 10 10^4/µL
  Blood examination: WBC: 8280 µL⁻¹
[5]; cord blood at delivery
  Anti-D antibody titer in the cord blood: double
[5]; immediately after the establishment of pregnancy
  Anti-D antibody titer: 4 fold
[5]; week 24 of pregnancy
  Anti-D antibody titer: 16 fold
[5]; week 26 of pregnancy
  Anti-D antibody titer: 32 fold
[1]; tacrolimus 2 mg/day continuously during pregnancy, no other treatments
  Pregnancy progress: favorable pregnancy progress
[6]
  NK cell activity: decreased in the second trimester of pregnancy and then conspicuously increased in the examination in week 32 of pregnancy; also recorded: decreased in the second trimester and then conspicuously increased from week 32 of pregnancy
[7]; Example 1 patient, week 28 of pregnancy, on tacrolimus 4 mg/day
  Th1: tendency of increase again
[7]; Example 4 patient during pregnancy, tacrolimus 1 mg/day, FIG. 8
  Ratio (proportions) of Th1 and Th2 cells among CD4-positive cells: continuously decreased
[8]
  Clinical pregnancy rate: 64.0%

## heparin
[1]
  Outcome of earlier treatment: not successful
